Reference: publication PMC10507961, “Development of an amoxicillin-radix scutellaria extract formulation and evaluation of its pharmacokinetics in pigs” (BMC Veterinary Research, 2023)
Converted amounts (≈) assume the structure as drawn.

Tests used:
[1] = tested on: Salmonella; assay: Antibacterial susceptibility test (MIC), Salmonella; format: cell-based; conditions: read-out: AMO MIC
Experimental: The minimum inhibitory concentration (MIC) of AMO and RSE was tested in the bacteria mentioned above; this method was previously reported by Jiarong Cao, et al..
(§1) Amoxicillin or baicalin was added to a sterile 96-well plate with multiple dilutions from low to high concentrations from the first well to the tenth well, with 100 μL per well. 100 μL of bacterial solution was added to a concentration of 1 × 10^6 CFU/mL. 200 μL of the bacterial solution was added to the 11th well as positive control, and 200 μL of broth was added to the 12th well as a negative control. The MIC test of quality control bacteria was carried out at the same time in each test. The 96-well plate was placed in a 37 ℃ incubator for 18 to 24 h, and the results were observed and recorded. The experiment was repeated three times.

[2] = Second pharmacokinetic study in pigs (three doses of AMO-RSE powder); format: in vivo; conditions: p.o. AMO-RSE powder, tested dose range (AMO 10–30 mg/kg, BCL 5–15 mg/kg)
Source text: Twelve healthy Landrace × Large White hybrid pigs, half male and half female, with an average body weight of 15 ± 3.2 kg (range 11–18 kg), were randomly divided into two groups (three male and three female pigs in each group) for pharmacokinetics experiments and were purchased from JuCong agriculture, Nanning, Guangxi. Commercial feed and water free of antibiotics and target drugs were freely available to the pigs housed individually in 12 pig pens. After the experiment, the pigs were released.
Pig jugular vein blood was collected in an anticoagulant tube, and centrifuged at 3000 rpm for 10 min, and the separated plasma was stored at -20 ℃. The plasma sample was placed at room temperature for natural thawing, and it was mixed evenly with a vortex, 1 mL of the plasma sample was accurately measure and placed it in a 10 mL centrifuge tube with a cover. […]
Using HPLC to measured the content of AMO. […] The limits of detection and quantification of amoxicillin in the plasma were 0.03 and 0.1 µg/ml, respectively.
The content of BCL were measured using HPLC. […] The limits of detection and quantification of […] in the plasma were 0.03 and 0.1 µg/ml, respectively. […]
The concentrations of AMO and BCL in plasma at each time point are expressed as the arithmetic mean ± SD. The pharmacokinetic parameters were calculated by using noncompartmental analysis based on statistical moment theory. […]

[3] = tested on: Escherichia coli; assay: Antibacterial susceptibility test (MIC), E. coli; format: cell-based; conditions: 15 strains, MIC range, read-out: AMO MIC
Experimental: as §1, with “Fifteen strains of E. coli, 16 strains of […], and 16 strains of […] were provided by the Department of Pharmacology and Toxicology of China Agricultural University. The minimum inhibitory concentration (MIC) of AMO and RSE was tested in the bacteria mentioned above; this method was previously reported by Jiarong Cao, et al.. Amoxicillin” for “Amoxicillin”

[4] = tested on: Streptococcus; assay: Antibacterial susceptibility test (MIC), Streptococcus; format: cell-based; conditions: 16 strains, MIC range
Experimental: as §1, with “Fifteen strains of E. coli, 16 strains of […], and 16 strains of […] were provided by the Department of Pharmacology and Toxicology of China Agricultural University. The minimum inhibitory concentration (MIC) of AMO and RSE was tested in the bacteria mentioned above; this method was previously reported by Jiarong Cao, et al.. Amoxicillin” for “Amoxicillin”

[5] = Moisture absorption percentage test; format: physicochemical
Experimental: Sample dried to a constant weight (1 g) was placed in a 5 mL flat weighing bottle, shaken gently to evenly distribute the sample, weighed accurately, put it in a dryer containing supersaturated sodium chloride solution (the weighing bottle is opened), and weighed after 24 h (n = 3). The moisture absorption percentage was calculated according to the following formula: Moistureabsorptionpercentage(%)=weightaftermoistureabsorption-weightbeforemoistureabsorption/weightbeforemoistureabsorption×100%

[6] = Angle of repose test; format: physicochemical; conditions: fixed funnel method
Experimental: The fixed funnel method was used to measure the angle of repose. A funnel was fixed at a height of 3 cm above coordinate paper (the paper was placed on a horizontal table), and materials were added through the funnel until the top of the accumulated cone came into contact with the bottom of the funnel. The cone diameter was measured, and the angle of repose was calculated with the ratio of the distance between the funnel and paper to the cone radius as the tangent.

Row | moisture absorption percentage, rank among five excipients [5] | angle of repose [6] [°] | SMILES | MIC [1] [µg/mL] | dose linearity of pharmacokinetics [2] | MIC [3] [µg/mL] | AMO MIC [4] [µg/mL] | MIC ([4]; read-out: AMO MIC) [µg/mL]
1 |  |  | CC1(C)S[C@@H]2[C@H](NC(=O)[C@H](N)c3ccc(O)cc3)C(=O)N2[C@H]1C(=O)O [AMO, Amoxicillin] | 0.25 to 32 (≈ 0.684 to 87.6 µM) | linear pharmacokinetic properties | 1 to 8 (≈ 2.74 to 21.9 µM) | 1 to 128 | 0.5 to 64 (≈ 1.37 to 175 µM)
2 |  |  | O=C(O)[C@H]1O[C@@H](Oc2cc3oc(-c4ccccc4)cc(=O)c3c(O)c2O)[C@H](O)[C@@H](O)[C@@H]1O [BCL, baicalin] |  | linear pharmacokinetic properties |  |  | 
3 | lowest | 41.44 | OC[C@H]1OC(O)[C@H](O)[C@@H](O)[C@@H]1O (some centres unmarked) [glucose] |  |  |  |  | 
